We go through 19 compounds from patent US6673938B1, “Substituted pyridine herbicides” (Syngenta Participations AG, priority 1998, dated 2004).

In the experiment the test system is Monocotyledonous and dicotyledonous test plants. Put plainly: Post-emergence herbicidal action. It counts as in vivo. The note with it: evaluated after approximately 18 days; for Post-emergence action, Ipomoea / Post-emergence action, Lolium / Post-emergence action, Setaria / Post-emergence action, Sinapis / Post-emergence action, Solanum / Post-emergence action, Stellaria: 2000 g/ha, sprayed in 4- to 6-leaf stage, nine-step scale; for Post-emergence action: Abutilon (score, nine-step scale) / Post-emergence action: Chenop. (score, nine-step scale) / Post-emergence action: Digitaria (score, nine-step scale) / Post-emergence action: Echino. (score, nine-step scale) / Post-emergence action: Ipopur. (score, nine-step scale) / Post-emergence action: Panicum (score, nine-step scale) / Post-emergence action: Xanth. (score, nine-step scale): 250 g/ha, sprayed at 4- to 6-leaf stage. On the procedure: Monocotyledonous and dicotyledonous test plants are grown in the greenhouse in plastic pots containing standard soil, and, in the 4- to 6-leaf stage, sprayed with an aqueous suspension of the test substances of the formula I prepared with a 25% wettable powder (Example F3, b) in accordance with WO 97/34485) or with an emulsion of the test substances of the formula I prepared with a 25% emulsion concentrate (Example F1, c) in accordance with WO 97/34485), corresponding to a rate of 2 kg of a.i./ha or 250 g of a.i./ha (500 l of water/ha). The test plants are subsequently grown on in the greenhouse under optimal conditions. After a test period of approximately 18 days, the test is evaluated with reference to a nine-step scale (1=complete damage, 9=no effect). Score figures of 1 to 4 (in particular 1 to 3) mean a good to very good herbicidal action. In this test, the compounds of the formula I show a potent herbicidal action.

Molecules are shown by their SMILES.

For the compound `Cc1nc(C(F)(F)F)ccc1C(=O)C1=C(O)C(C(C)C)CCC1=O` (stereo not shown) [Compound A2-B5], the “Post-emergence action, Ipomoea” value turned out to be 1; the “Post-emergence action, Lolium” value is reported as 2; the “Post-emergence action, Setaria” value was 2; the “Post-emergence action, Sinapis” value is on record as 1. Moreover, the “Post-emergence action, Solanum” value is reported as 2 and the “Post-emergence action, Stellaria” value was determined as 2.
Regarding `CSC1(C)CCC(=O)C(C(=O)c2ccc(C(F)(F)F)nc2C)=C1O` (stereo not shown) [Compound A2-B29], the “Post-emergence action, Ipomoea” value was determined as 2; the “Post-emergence action, Lolium” value amounted to 3; the “Post-emergence action, Setaria” value is 2; the “Post-emergence action, Sinapis” value worked out at 1. Moreover, the “Post-emergence action, Solanum” value stood at 2 and the “Post-emergence action, Stellaria” value amounted to 2.
For the compound `CCCC1(C)CC(C)C(=O)C(C(=O)c2ccc(C(F)(F)F)nc2C)=C1O` (stereo not shown) [Compound A2-B70], the “Post-emergence action, Ipomoea” value stood at 3; the “Post-emergence action, Lolium” value was determined as 4; the “Post-emergence action, Setaria” value came to 3; the “Post-emergence action, Sinapis” value is on record as 1. In addition, the “Post-emergence action, Solanum” value came to 2 and the “Post-emergence action, Stellaria” value is recorded as 2.
`CCC1(CC)CCC(=O)C(C(=O)c2ccc(C(F)(F)F)nc2C)=C1O` [Compound A2-B112]: the “Post-emergence action, Ipomoea” value was found to be 2; the “Post-emergence action, Lolium” value turned out to be 3; the “Post-emergence action, Setaria” value was determined as 2; the “Post-emergence action, Sinapis” value is 1. The “Post-emergence action, Solanum” value worked out at 2 and the “Post-emergence action, Stellaria” value came to 2.
On to `Cc1nc(C(F)(F)F)ccc1C(=O)C1=C(O)CC(c2ccccc2)CC1=O` (stereo not shown) [Compound A2-B1058], for which the “Post-emergence action, Ipomoea” value was 1; the “Post-emergence action, Lolium” value is on record as 2; the “Post-emergence action, Setaria” value came to 4; the “Post-emergence action, Sinapis” value stood at 1. The “Post-emergence action, Solanum” value was 2 and the “Post-emergence action, Stellaria” value is listed as 2.
`Cc1nc(C(F)(F)F)ccc1C(=O)C1=C(O)CC(C)(C(F)(F)F)CC1=O` (stereo not shown) [Compound A2-B1066]: the “Post-emergence action, Ipomoea” value came to 1; the “Post-emergence action, Lolium” value was 3; the “Post-emergence action, Setaria” value is given as 2; the “Post-emergence action, Sinapis” value worked out at 1. In addition, the “Post-emergence action, Solanum” value stood at 2 and the “Post-emergence action, Stellaria” value came to 2.
With `COC(=O)C1(C)C(O)=C(C(=O)c2ccc(C(F)(F)F)nc2C)C(=O)CC1(C)C` (stereo not shown) [Compound A2-B1087], the “Post-emergence action, Ipomoea” value is listed as 1; the “Post-emergence action, Lolium” value was found to be 4; the “Post-emergence action, Setaria” value is listed as 3; the “Post-emergence action, Sinapis” value is reported as 1. Besides, the “Post-emergence action, Solanum” value came to 2 and the “Post-emergence action, Stellaria” value came out at 2.
For the compound `CCSC1(CC)CC(C)C(=O)C(C(=O)c2ccc(C(F)(F)F)nc2C)=C1O` (stereo not shown) [Compound A2-B1091], the “Post-emergence action: Abutilon (score, nine-step scale)” value (shortened to “Post-emergence action: Abutilon”) came to 3; the “Post-emergence action: Chenop. (score, nine-step scale)” value stood at 3; the “Post-emergence action: Digitaria (score, nine-step scale)” value (“Post-emergence action: Digitaria” for short) is on record as 4; the “Post-emergence action: Echino. (score, nine-step scale)” value turned out to be 2. Also, the “Post-emergence action: Ipopur. (score, nine-step scale)” value worked out at 3; the “Post-emergence action: Panicum (score, nine-step scale)” value (“Post-emergence action: Panicum” for short) was 4; the “Post-emergence action: Xanth. (score, nine-step scale)” value was found to be 4.
Consider `CCC1(CC)CC(C)C(=O)C(C(=O)c2ccc(C(F)(F)F)nc2C)=C1O` (stereo not shown) [Compound A2-B1093], for which the “Post-emergence action, Ipomoea” value came out at 2; the “Post-emergence action, Lolium” value was 2; the “Post-emergence action, Setaria” value is 2; the “Post-emergence action, Sinapis” value worked out at 1. Also, the “Post-emergence action, Solanum” value turned out to be 2 and the “Post-emergence action, Stellaria” value is listed as 2.
Consider `COC(=O)C1C(O)=C(C(=O)c2ccc(C(F)(F)F)nc2C)C(=O)CC1(C)C` (stereo not shown) [Compound A2-B1094], for which the “Post-emergence action: Abutilon” value was 3; the “Post-emergence action: Chenop. (score, nine-step scale)” value was determined as 2; the “Post-emergence action: Digitaria” value was found to be 3; the “Post-emergence action: Echino. (score, nine-step scale)” value turned out to be 2. Also, the “Post-emergence action: Ipopur. (score, nine-step scale)” value is recorded as 3; the “Post-emergence action: Panicum” value is recorded as 2; the “Post-emergence action: Xanth. (score, nine-step scale)” value stood at 3.
For the compound `CCN(CC)CC.Cc1nc(C(F)(F)F)ccc1C(=O)C1=C(O)CC(C)CC1=O` (stereo not shown) [Compound A2-B1101], the “Post-emergence action, Ipomoea” value came out at 2; the “Post-emergence action, Lolium” value amounted to 2; the “Post-emergence action, Setaria” value amounted to 2; the “Post-emergence action, Sinapis” value is 1. The “Post-emergence action, Solanum” value is reported as 1 and the “Post-emergence action, Stellaria” value is reported as 3.
As to `Cc1nc(C(F)(F)F)ccc1C(=O)C1=C(O)CCC2(CCCCCC2)C1=O` [Compound A2-C149], the “Post-emergence action, Ipomoea” value is given as 1; the “Post-emergence action, Lolium” value is listed as 3; the “Post-emergence action, Setaria” value is on record as 2; the “Post-emergence action, Sinapis” value came to 1. The “Post-emergence action, Solanum” value was 2 and the “Post-emergence action, Stellaria” value was determined as 2.
Consider `Cc1nc(C(F)(F)F)ccc1C(=O)C1=C(O)C2CC2C(C)([S+](C)[O-])C1=O` (stereo not shown) [Compound A2-D114, 5-Hydroxy-2-methanesulfinyl-2-methyl-4-(2-methyl-6-trifluoromethylpyridine-3-carbonyl)bicyclo[4.1.0]hept-4-en-3-one], for which the “Post-emergence action, Ipomoea” value turned out to be 2; the “Post-emergence action, Lolium” value is 1; the “Post-emergence action, Setaria” value was found to be 1; the “Post-emergence action, Sinapis” value is 1. Moreover, the “Post-emergence action, Solanum” value came to 1 and the “Post-emergence action, Stellaria” value is 1.
Consider `Cc1nc(C(F)(F)F)ccc1C(=O)C1=C(O)CCC2(CCOC2=O)C1=O` (stereo not shown) [Compound A2-E16], for which the “Post-emergence action, Ipomoea” value stood at 2; the “Post-emergence action, Lolium” value was 3; the “Post-emergence action, Setaria” value is listed as 2; the “Post-emergence action, Sinapis” value came to 2. The “Post-emergence action, Solanum” value came to 2 and the “Post-emergence action, Stellaria” value turned out to be 2.
In the case of `CC1=CCCC(O)=C(C(=O)c2ccc(C(F)(F)F)nc2C)C1=O` [Compound A2-F5, 3-Hydroxy-7-methyl-2-(2-methyl-6-trifluoromethyloyridine-3-carbonyl)cyclohepta-2,6-dienone], the “Post-emergence action: Abutilon” value is given as 3; the “Post-emergence action: Chenop. (score, nine-step scale)” value was 3; the “Post-emergence action: Digitaria” value came to 3; the “Post-emergence action: Echino. (score, nine-step scale)” value stood at 3. Further, the “Post-emergence action: Ipopur. (score, nine-step scale)” value came out at 4; the “Post-emergence action: Panicum” value is 3; the “Post-emergence action: Xanth. (score, nine-step scale)” value came to 3.
For `CC1(C)CCC(=O)C(C(=O)c2ccc(C(F)(F)F)nc2C2CC2)=C1O` [Compound A6-B24], the “Post-emergence action, Ipomoea” value is given as 1; the “Post-emergence action, Lolium” value came to 3; the “Post-emergence action, Setaria” value turned out to be 2; the “Post-emergence action, Sinapis” value is on record as 1. Moreover, the “Post-emergence action, Solanum” value worked out at 1 and the “Post-emergence action, Stellaria” value was 2.
`CCCc1nc(C(F)(F)F)ccc1C(=O)C1=C(O)C(C)(C)CCC1=O` [Compound A7-B24]: the “Post-emergence action, Ipomoea” value amounted to 1; the “Post-emergence action, Lolium” value came out at 2; the “Post-emergence action, Setaria” value turned out to be 2; the “Post-emergence action, Sinapis” value stood at 1. Besides, the “Post-emergence action, Solanum” value is 2 and the “Post-emergence action, Stellaria” value is on record as 2.
`COCc1nc(C(F)(F)F)ccc1C(=O)C1=C(O)CC(C)CC1=O` (stereo not shown) [Compound A8-B133]: the “Post-emergence action, Ipomoea” value was 2; the “Post-emergence action, Lolium” value is 4; the “Post-emergence action, Setaria” value was found to be 2; the “Post-emergence action, Sinapis” value was found to be 1. Besides, the “Post-emergence action, Solanum” value is on record as 2 and the “Post-emergence action, Stellaria” value turned out to be 2.
Regarding `COCc1nc(C(F)(F)F)ccc1C(=O)C1=C(O)C(C)C(C)CC1=O` (stereo not shown) [Compound A8-B134], the “Post-emergence action: Abutilon” value is on record as 2; the “Post-emergence action: Chenop. (score, nine-step scale)” value was 2; the “Post-emergence action: Digitaria” value turned out to be 3; the “Post-emergence action: Echino. (score, nine-step scale)” value worked out at 3. The “Post-emergence action: Ipopur. (score, nine-step scale)” value is given as 3; the “Post-emergence action: Panicum” value is listed as 3; the “Post-emergence action: Xanth. (score, nine-step scale)” value is 3.
